Source: US11453697B1, “Cyclic di-nucleotide compounds as sting agonists” (Merck Sharp & Dohme Corp., priority 2015, dated 2022)
Like-named read-outs stand apart in the source and are kept apart here.

Assays:
[1] = target: full-length HAQ STING (Homo sapiens (Human), UniProt Q86WV6, G230A/H232R/R293Q/R71H); test: 3H-cGAMP filtration binding assay (HAQ STING); conditions: competition with tritiated cGAMP, HAQ STING membrane; read-out: EC50 (nM), 3H-cGAMP filtration binding assay for HAQ STING
In short: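 Competition binding of compounds against 8 nM [3H]cGAMP working stock on Hi-Five cell membranes overexpressing full-length HAQ STING; compound and membrane preincubated 60 min at RT before ligand addition. Bound radioactivity read by filtration and scintillation counting; percent activity normalized to controls, EC50 from 4-parameter fit.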

[2] = tested on: IFN-β secretion in THP1 cells; test: IFN-β secretion in THP1 cell culture (5 h); assay type: cell-based, human
In short: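 THP1 cells incubated with compound for 5 h at 37 °C, 5% CO2, and secreted IFN-β in supernatant quantified by AlphaLISA. Percent effect normalised to 30 uM cGAMP positive control and 0.3% DMSO. EC50 from 4-parameter fit.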

[3] = target: full-length WT STING (Homo sapiens (Human), UniProt Q86WV6, H232R); test: 3H-cGAMP filtration binding assay (WT STING)
Method: The ability of compounds to bind STING is quantified by their ability to compete with tritiated cGAMP ligand for human STING receptor membrane using a radioactive filter-binding assay.
The basic WT STING filtration assay protocol is as follows:
Tritium levels for each reaction well were then measured using a PerkinElmer TopCount plate reader.
After normalization to controls, the percent activity for each compound concentration was calculated by measuring the amount of remaining radioactivity. The plot of percent activity versus the log of compound concentration was fit with a 4-parameter dose response equation to calculate EC50 values.

[4] = competition with tritiated cGAMP, WT STING membrane; read-out: EC50 (nM), 3H-cGAMP filtration binding assay for WT STING
[5] = IFN-β secretion in THP1 cell culture, 5 h, compound at 30 μM, percent activation relative to 2′3′-cGAMP
[6] = read-out: % Inh @ 20 uM, 3H-cGAMP filtration binding assay for WT STING

full-length HAQ STING, sequence (Q86WV6 other isoform, or with tags, fused parts or gaps, stated change not applied): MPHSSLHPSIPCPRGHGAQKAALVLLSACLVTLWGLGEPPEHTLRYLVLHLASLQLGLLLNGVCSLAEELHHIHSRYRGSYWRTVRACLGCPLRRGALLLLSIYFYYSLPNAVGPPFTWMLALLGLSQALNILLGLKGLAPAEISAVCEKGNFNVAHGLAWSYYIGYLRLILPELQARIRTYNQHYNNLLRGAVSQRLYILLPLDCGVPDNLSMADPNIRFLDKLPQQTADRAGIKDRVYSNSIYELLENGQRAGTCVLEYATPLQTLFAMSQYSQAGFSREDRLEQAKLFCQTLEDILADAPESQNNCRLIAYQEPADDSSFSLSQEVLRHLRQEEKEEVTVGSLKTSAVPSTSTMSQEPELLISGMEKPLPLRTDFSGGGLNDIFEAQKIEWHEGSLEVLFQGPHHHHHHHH
full-length WT STING, sequence (Q86WV6 other isoform, or with tags, fused parts or gaps H232R (already in the parent)): as the sequence (Q86WV6 other isoform, or with tags, fused parts or gaps, stated change not applied) above, with H71R, A230G, Q293R counted along it

EC50 [3, 4] | SMILES | EC50 [1] | % Effect at 30 μM relative to 2′3′-cGAMP [2] | % Effect at 30 μM relative to 2′3′-cGAMP [2, 5] | also measured
302 nM | Nc1nc2c(ncn2[C@@H]2O[C@@H]3COP(=O)(S)O[C@H]4C[C@H](n5cc(F)c6c(N)ncnc65)O[C@@H]4COP(=O)(O)O[C@@H]2[C@@H]3F)c(=O)[nH]1 (stereo partly drawn) [Example 255, 2-amino-9-[(5R,7R,8S,12aR,14R,15aS,16R)-14-(4-amino-5-fluoro-7H-pyrrolo[2,3-d]pyrimidin-7-yl)-16-fluoro-10-hydroxy-2,10-dioxido-2-sulfanyloctahydro-12H-5,8-methanofuro[3,2-1][1,3,6,9,11,2,10]pentaoxadiphosphacyclo-tetradecin-7-yl]-1,9-dihydro-6H-purin-6-one] | – | – | 49% | –
– | Nc1nc2c(nnn2[C@@H]2O[C@@H]3COP(O)(=S)O[C@@H]4[C@@H](COP(O)(=S)O[C@@H]2[C@H]3F)O[C@@H](n2ccc3c(N)ncnc32)C4(F)F)c(=O)[nH]1 (stereo partly drawn) [Example 220, 5-amino-3-[(5R,7R,8S,12aR,14R,15aR,16S)-14-(4-amino-7H-pyrrolo[2,3-d]pyrimidin-7-yl)-15,15,16-trifluoro-2,10-dihydroxy-2,10-disulfidooctahydro-12H-5,8-methanofuro[3,2-l][1,3,6,9,11,2,10]pentaoxadiphosphacyclotetra-decin-7-yl]-3,6-dihydro-7H-[1,2,3]triazolo[4,5-d]pyrimidin-7-one] | – | 6% | – | inhibition at 20 µM [3, 6]: 29%
– | Nc1nc2c(ncn2[C@@H]2O[C@@H]3COP(O)(=S)O[C@H]4[C@H](F)[C@H](n5cnc6c(N)ncnc65)O[C@@H]4COP(O)(=S)O[C@@H]2C3(F)F)c(=O)[nH]1 (single isomer, unassigned) [Example 155] | – | 139% | – | EC50 ([3]; EC50 (nM), 3H-cGAMP filtration binding assay for WT STING, competition with tritiated cGAMP, WT STING membrane): < 1 nM
– | Nc1nc2c(ncn2[C@@H]2O[C@@H]3COP(O)(=S)O[C@H]4[C@H](F)[C@H](n5cnc6c(N)ncnc65)O[C@@H]4COP(O)(=S)O[C@@H]2C3(F)F)c(=O)[nH]1 (single isomer, unassigned) [Example 156] | – | 119% | – | EC50 ([3]; read-out: EC50 (nM), 3H-cGAMP filtration binding assay for WT STING; competition with tritiated cGAMP, WT STING membrane): < 1 nM
422 nM | Nc1nc2c(ncn2[C@@H]2O[C@@H]3COP(=O)(S)O[C@H]4C[C@H](c5cnc6c(=O)[nH]cnn56)O[C@@H]4COP(=O)(S)O[C@@H]2[C@@H]3F)c(=O)[nH]1 (stereo partly drawn) [Example 336, 7-[(5R,7R,8S,12aR,14R,15aS,16R)-7-(2-amino-6-oxo-1,6-dihydro-9H-purin-9-yl)-16-fluoro-2,10-dioxido-2,10-disulfanyloctahydro-12H-5,8-methanofuro[3,2-l][1,3,6,9,11,2,10]pentaoxadiphosphacyclotetradecin-14-yl]imidazo[2,1-f][1,2,4]triazin-4(3H)-one] | – | – | 85% | –
– | Nc1cc2c(ncn2[C@@H]2O[C@@H]3COP(=O)(S)O[C@H]4[C@H](F)[C@H](n5ccc6c(N)ncnc65)O[C@@H]4COP(=O)(S)O[C@@H]2[C@@H]3F)c(=O)[nH]1 (single isomer, unassigned) [Example 229] | – | – | – | inhibition at 20 µM [3, 6]: 31%
93.5 nM | Nc1nc2c(ncn2[C@@H]2O[C@@H]3COP(=O)(S)O[C@H]4C[C@H](n5cc(F)c6c(N)ncnc65)O[C@@H]4COP(=O)(O)O[C@@H]2[C@@H]3F)c(=O)[nH]1 (stereo partly drawn) [Example 256, 2-amino-9-[(5R,7R,8S,12aR,14R,15aS,16R)-14-(4-amino-5-fluoro-7H-pyrrolo[2,3-d]pyrimidin-7-yl)-16-fluoro-10-hydroxy-2,10-dioxido-2-sulfanyloctahydro-12H-5,8-methanofuro[3,2-1][1,3,6,9,11,2,10]pentaoxadiphosphacyclo-tetradecin-7-yl]-1,9-dihydro-6H-purin-6-one] | – | – | 149% | –
– | Nc1nc2c(ncn2[C@@H]2O[C@@H]3COP(=O)(O)O[C@H]4[C@@H](F)[C@H](n5cnc6c(=O)[nH]cnc65)O[C@@H]4COP(=O)(O)O[C@@H]2C3)c(=O)[nH]1 [Example 294, 2-amino-9-[(5S,7R,8R,12aR,14R,15R,15aR)-15-fluoro-2,10-dihydroxy-2,10-dioxido-14-(6-oxo-1,6-dihydro-9H-purin-9-yl)octahydro-12H-5,8-methanofuro[3,2-l] [1,3,6,9,11,2,10]pentaoxadiphosphacyclo-tetradecin-7-yl]-1,9-dihydro-6H-purin-6-one] | 6.6 nM | – | 84% | –

SMILES | EC50 [3, 4] | EC50 [1] | % Effect at 30 μM relative to 2′3′-cGAMP [2] | % Effect at 30 μM relative to 2′3′-cGAMP [2, 5] | also measured
Nc1nc2c(ncn2[C@@H]2O[C@@H]3COP(=O)(S)O[C@H]4[C@@H](O)[C@H](n5ccc6c(N)ncnc65)O[C@@H]4COP(=O)(O)O[C@@H]2[C@@H]3O)c(=O)[nH]1 (stereo partly drawn) [Example 43, 2-amino-9-[(5R,7R,8R,12aR,14R,15R,15aS,16R)-14-(4-amino-7H-pyrrolo[2,3-d]pyrimidin-7-yl)-10,15,16-trihydroxy-2,10-dioxido-2-sulfanyloctahydro-12H-5,8-methanofuro[3,2-l][1,3,6,9,11,2,10]pentaoxadiphosphacyclotetradecin-7-yl]-1,9-dihydro-6H-purin-6-one] | 1020 nM | 162 nM | 130% | – | –
Nc1nc2c(ncn2[C@@H]2O[C@@H]3COP(O)(=S)O[C@H]4[C@@H](O)[C@H](n5cnc6c(N)ncnc65)O[C@@H]4COP(=O)(O)O[C@@H]2[C@@H]3O)c(=O)[nH]1 (stereo partly drawn) [Example 38, 2-amino-9-[(5R,7R,8R,12aR,14R,15R,15aS,16R)-14-(6-amino-9H-purin-9-yl)-2,10,15,16-tetrahydroxy-10-oxido-2-sulfidooctahydro-12H-5,8-methanofuro[3,2-l][1,3,6,9,11,2,10]pentaoxadiphosphacyclotetradecin-7-yl]-1,9-dihydro-6H-purin-6-one] | 24.9 nM | 3 nM | 123% | – | –
